Results from the kinase profiling compilation of Christmann-Franck et al. (2016).

Key:
Assay in all cases: KINOMEscan competition binding
Details in all cases: compound 10.0 µM
ABL2 (human) = ABL2 (human) (UniProt P42684)
ANKK1 (human) = ANKK1 (human) (UniProt Q8NFD2)
AURKC (human) = AURKC (human) (UniProt Q9UQB9)
BLK (human) = BLK (human) (UniProt P51451)
BRSK2 (human) = BRSK2 (human) (UniProt Q8IWQ3)
CAMK1G (human) = CAMK1G (human) (UniProt Q96NX5)
CAMK4 (human) = CAMK4 (human) (UniProt Q16566)
CDK14 (human) = CDK14 (human) (UniProt O94921)
CIT (human) = CIT (human) (UniProt O14578)
CSNK1E (human) = CSNK1E (human) (UniProt P49674)
CSNK1G3 (human) = CSNK1G3 (human) (UniProt Q9Y6M4)
CaMK1 (human) = CaMK1 (human) (UniProt Q14012)
DAPK3 (human) = DAPK3 (human) (UniProt O43293)
[1] = system: EIF2AK4 KD2 (human), Q9P2K8 [S808G]
EPHA7 (human) = EPHA7 (human) (UniProt Q15375)
[2] = system: FLT3 (human), P36888 [N841I]
MAP3K3 (human) = MAP3K3 (human) (UniProt Q99759)
MAP3K4 (human) = MAP3K4 (human) (UniProt Q9Y6R4)
MAP4K5 (human) = MAP4K5 (human) (UniProt Q9Y4K4)
MAPK11 (human) = MAPK11 (human) (UniProt Q15759)
MELK (human) = MELK (human) (UniProt Q14680)
MYLK (human) = MYLK (human) (UniProt Q15746)
NEK5 (human) = NEK5 (human) (UniProt Q6P3R8)
NTRK1 (human) = NTRK1 (human) (UniProt P04629)
NUAK2 (human) = NUAK2 (human) (UniProt Q9H093)
PDPK1 (human) = PDPK1 (human) (UniProt O15530)
PIP4K2B (human) = PIP4K2B (human) (UniProt P78356)
PKN1 (human) = PKN1 (human) (UniProt Q16512)
PLK3 (human) = PLK3 (human) (UniProt Q9H4B4)
PRKCD (human) = PRKCD (human) (UniProt Q05655)
PTK2B (human) = PTK2B (human) (UniProt Q14289)
PTK6 (human) = PTK6 (human) (UniProt Q13882)
RIOK1 (human) = RIOK1 (human) (UniProt Q9BRS2)
STK35 (human) = STK35 (human) (UniProt Q8TDR2)
TLK1 (human) = TLK1 (human) (UniProt Q9UKI8)
TNIK (human) = TNIK (human) (UniProt Q9UKE5)
TNK1 (human) = TNK1 (human) (UniProt Q13470)
TNNI3K (human) = TNNI3K (human) (UniProt Q59H18)
TSSK1B (human) = TSSK1B (human) (UniProt Q9BXA7)
WEE2 (human) = WEE2 (human) (UniProt P0C1S8)
WEE2 (human), sequence (P0C1S8 whole entry, looked up): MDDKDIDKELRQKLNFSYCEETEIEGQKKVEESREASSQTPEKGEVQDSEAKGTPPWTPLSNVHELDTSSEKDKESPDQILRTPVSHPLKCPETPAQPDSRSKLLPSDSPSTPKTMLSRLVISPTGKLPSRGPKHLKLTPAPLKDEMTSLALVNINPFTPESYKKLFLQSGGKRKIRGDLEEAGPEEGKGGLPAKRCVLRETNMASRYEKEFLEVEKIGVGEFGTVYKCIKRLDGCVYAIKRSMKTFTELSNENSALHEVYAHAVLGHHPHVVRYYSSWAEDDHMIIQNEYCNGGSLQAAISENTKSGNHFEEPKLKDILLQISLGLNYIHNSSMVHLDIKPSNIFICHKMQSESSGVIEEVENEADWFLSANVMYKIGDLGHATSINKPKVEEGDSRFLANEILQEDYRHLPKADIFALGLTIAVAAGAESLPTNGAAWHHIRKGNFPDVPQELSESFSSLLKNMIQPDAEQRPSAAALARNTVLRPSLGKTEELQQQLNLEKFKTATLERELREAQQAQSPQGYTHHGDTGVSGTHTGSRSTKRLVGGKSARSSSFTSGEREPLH

MYLK (human), sequence (Q15746 whole entry, looked up): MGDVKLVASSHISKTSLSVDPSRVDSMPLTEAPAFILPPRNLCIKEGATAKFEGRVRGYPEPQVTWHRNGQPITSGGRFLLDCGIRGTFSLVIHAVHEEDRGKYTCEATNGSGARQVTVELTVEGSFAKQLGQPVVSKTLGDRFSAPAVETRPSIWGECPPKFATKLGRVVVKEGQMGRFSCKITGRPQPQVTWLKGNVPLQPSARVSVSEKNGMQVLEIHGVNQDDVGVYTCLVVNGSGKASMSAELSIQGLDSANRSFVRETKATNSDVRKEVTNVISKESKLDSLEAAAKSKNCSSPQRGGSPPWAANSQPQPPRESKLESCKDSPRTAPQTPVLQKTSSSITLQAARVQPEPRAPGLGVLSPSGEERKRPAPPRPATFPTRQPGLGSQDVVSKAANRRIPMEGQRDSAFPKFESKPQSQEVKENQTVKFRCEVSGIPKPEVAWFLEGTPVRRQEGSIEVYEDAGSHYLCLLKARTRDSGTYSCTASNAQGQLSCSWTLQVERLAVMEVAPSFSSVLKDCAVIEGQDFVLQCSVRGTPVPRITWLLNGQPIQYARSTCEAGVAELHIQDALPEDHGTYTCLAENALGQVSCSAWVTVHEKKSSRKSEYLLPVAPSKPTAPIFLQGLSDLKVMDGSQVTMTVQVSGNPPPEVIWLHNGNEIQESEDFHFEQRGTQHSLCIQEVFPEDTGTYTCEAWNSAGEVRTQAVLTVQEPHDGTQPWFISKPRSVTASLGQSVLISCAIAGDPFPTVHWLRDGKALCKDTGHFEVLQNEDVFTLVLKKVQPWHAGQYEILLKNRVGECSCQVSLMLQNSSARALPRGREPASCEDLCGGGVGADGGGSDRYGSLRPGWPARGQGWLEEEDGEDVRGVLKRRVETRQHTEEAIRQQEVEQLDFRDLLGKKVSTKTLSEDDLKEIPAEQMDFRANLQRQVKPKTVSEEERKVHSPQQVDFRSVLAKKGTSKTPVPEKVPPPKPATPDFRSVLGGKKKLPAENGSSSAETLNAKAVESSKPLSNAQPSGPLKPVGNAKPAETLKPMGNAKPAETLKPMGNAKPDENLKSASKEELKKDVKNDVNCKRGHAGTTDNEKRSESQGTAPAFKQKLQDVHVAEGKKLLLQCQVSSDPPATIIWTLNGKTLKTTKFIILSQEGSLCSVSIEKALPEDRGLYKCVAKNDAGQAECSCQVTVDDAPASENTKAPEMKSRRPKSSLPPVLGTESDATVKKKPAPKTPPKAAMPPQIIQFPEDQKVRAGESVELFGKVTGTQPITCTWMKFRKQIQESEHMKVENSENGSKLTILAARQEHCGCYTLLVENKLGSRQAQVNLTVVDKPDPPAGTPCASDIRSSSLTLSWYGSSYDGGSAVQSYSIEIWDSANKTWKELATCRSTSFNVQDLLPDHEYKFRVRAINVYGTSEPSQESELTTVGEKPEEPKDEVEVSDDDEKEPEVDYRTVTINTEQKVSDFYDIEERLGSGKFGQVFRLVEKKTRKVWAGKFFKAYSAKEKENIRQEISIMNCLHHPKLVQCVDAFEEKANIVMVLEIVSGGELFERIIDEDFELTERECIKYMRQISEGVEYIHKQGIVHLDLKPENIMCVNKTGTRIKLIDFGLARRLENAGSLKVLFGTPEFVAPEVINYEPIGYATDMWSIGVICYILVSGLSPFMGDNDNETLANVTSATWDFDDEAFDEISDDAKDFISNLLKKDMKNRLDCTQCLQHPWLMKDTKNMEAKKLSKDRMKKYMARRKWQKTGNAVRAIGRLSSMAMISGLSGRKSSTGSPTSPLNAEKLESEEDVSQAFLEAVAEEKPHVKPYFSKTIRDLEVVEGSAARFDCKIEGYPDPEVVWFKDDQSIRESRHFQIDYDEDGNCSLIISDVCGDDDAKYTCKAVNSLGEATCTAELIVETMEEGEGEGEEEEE
PLK3 (human), sequence (Q9H4B4 whole entry, looked up): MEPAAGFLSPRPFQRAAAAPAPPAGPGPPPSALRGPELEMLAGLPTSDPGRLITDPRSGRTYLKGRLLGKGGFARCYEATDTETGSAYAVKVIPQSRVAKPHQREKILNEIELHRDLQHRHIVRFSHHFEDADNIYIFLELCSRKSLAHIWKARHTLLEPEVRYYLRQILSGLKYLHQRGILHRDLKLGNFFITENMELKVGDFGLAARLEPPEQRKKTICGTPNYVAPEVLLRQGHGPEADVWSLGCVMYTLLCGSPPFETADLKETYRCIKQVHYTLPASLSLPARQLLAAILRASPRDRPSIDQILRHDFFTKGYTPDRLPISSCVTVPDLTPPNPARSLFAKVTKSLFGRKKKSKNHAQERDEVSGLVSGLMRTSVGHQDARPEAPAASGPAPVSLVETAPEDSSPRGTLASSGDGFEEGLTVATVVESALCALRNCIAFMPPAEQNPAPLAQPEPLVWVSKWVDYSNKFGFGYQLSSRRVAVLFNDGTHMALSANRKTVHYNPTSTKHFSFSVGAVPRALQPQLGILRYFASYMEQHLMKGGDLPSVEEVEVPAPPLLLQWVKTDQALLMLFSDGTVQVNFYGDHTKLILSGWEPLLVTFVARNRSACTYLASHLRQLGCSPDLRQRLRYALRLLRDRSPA
NEK5 (human), sequence (Q6P3R8 whole entry, looked up): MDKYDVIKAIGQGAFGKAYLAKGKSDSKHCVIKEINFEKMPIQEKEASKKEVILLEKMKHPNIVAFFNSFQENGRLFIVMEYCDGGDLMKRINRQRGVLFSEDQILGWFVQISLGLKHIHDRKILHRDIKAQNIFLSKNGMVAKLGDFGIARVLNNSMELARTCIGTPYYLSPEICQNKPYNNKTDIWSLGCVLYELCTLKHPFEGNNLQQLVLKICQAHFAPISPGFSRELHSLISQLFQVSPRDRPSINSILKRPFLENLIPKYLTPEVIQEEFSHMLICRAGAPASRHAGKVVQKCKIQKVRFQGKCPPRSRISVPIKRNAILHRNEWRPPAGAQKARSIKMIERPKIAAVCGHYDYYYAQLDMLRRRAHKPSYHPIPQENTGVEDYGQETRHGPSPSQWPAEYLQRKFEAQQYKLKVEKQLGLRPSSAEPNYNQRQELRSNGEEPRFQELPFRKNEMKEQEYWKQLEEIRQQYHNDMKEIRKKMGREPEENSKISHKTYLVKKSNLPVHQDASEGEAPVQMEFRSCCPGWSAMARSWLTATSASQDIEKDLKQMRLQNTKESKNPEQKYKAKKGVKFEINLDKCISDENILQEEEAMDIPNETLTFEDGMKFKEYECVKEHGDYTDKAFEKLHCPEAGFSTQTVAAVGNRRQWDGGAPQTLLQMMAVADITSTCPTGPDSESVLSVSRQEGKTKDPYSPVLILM
NTRK1 (human), sequence (P04629 whole entry, looked up): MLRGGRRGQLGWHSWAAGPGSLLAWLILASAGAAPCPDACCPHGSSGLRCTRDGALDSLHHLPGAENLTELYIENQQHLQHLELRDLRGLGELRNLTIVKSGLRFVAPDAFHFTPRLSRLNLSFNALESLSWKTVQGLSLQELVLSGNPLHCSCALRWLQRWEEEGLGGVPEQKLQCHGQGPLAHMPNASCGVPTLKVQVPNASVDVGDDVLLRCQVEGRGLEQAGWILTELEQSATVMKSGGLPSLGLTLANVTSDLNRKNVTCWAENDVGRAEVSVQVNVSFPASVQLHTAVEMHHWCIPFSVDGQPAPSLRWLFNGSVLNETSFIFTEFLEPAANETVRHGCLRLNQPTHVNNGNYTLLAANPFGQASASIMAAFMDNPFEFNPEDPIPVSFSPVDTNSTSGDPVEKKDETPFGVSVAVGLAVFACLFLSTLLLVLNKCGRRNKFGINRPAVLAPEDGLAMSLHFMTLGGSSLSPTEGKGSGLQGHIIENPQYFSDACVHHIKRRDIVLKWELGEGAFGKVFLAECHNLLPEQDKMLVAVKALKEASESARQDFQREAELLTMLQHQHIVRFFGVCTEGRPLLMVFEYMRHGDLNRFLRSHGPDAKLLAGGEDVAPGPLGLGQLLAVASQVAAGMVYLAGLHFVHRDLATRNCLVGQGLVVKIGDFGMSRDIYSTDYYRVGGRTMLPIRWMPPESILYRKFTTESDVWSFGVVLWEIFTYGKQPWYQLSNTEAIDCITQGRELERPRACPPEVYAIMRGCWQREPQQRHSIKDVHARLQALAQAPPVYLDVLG
CAMK4 (human), sequence (Q16566 whole entry, looked up): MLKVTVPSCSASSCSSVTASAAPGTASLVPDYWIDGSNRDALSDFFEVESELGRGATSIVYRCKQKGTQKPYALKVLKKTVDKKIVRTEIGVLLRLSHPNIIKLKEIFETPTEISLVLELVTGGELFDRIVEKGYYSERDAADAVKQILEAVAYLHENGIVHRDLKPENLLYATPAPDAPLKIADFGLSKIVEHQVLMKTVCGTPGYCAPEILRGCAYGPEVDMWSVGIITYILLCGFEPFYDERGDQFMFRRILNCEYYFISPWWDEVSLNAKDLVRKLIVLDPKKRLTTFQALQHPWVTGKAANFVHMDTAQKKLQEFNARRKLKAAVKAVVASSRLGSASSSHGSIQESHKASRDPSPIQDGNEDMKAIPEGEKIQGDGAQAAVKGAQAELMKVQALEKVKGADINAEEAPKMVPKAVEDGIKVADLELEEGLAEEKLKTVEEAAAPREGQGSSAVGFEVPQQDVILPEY

Compound | kinase still bound, per cent of control (ABL2 (human)) | kinase still bound, per cent of control (ANKK1 (human)) | kinase still bound, per cent of control (AURKC (human)) | kinase still bound, per cent of control (BLK (human)) | kinase still bound, per cent of control (BRSK2 (human)) | kinase still bound, per cent of control (CAMK1G (human)) | kinase still bound, per cent of control (CAMK4 (human)) | kinase still bound, per cent of control (CDK14 (human)) | kinase still bound, per cent of control (CIT (human)) | kinase still bound, per cent of control (CSNK1E (human)) | kinase still bound, per cent of control (CSNK1G3 (human)) | kinase still bound, per cent of control (CaMK1 (human)) | kinase still bound, per cent of control (DAPK3 (human)) | kinase still bound, per cent of control [1] | kinase still bound, per cent of control (EPHA7 (human)) | kinase still bound, per cent of control [2] | kinase still bound, per cent of control (MAP3K3 (human)) | kinase still bound, per cent of control (MAP3K4 (human)) | kinase still bound, per cent of control (MAP4K5 (human)) | kinase still bound, per cent of control (MAPK11 (human)) | other results
O=C(NOC[C@H](O)CO)c1ccc(F)c(F)c1Nc1ccc(I)cc1F | 90% | 64% | 45% | 83% | 100% | 100% | 100% | 100% | 100% | 100% | 67% | 98% | 100% | 84% | 94% | 78% | 98% | 100% | 69% | 100% | kinase still bound, per cent of control (MELK (human)): 80%; kinase still bound, per cent of control (MYLK (human)): 96%; kinase still bound, per cent of control (NEK5 (human)): 78%; kinase still bound, per cent of control (NTRK1 (human)): 100%; kinase still bound, per cent of control (NUAK2 (human)): 99%; kinase still bound, per cent of control (PDPK1 (human)): 71%; kinase still bound, per cent of control (PIP4K2B (human)): 100%; kinase still bound, per cent of control (PKN1 (human)): 100%; kinase still bound, per cent of control (PLK3 (human)): 100%; kinase still bound, per cent of control (PRKCD (human)): 100%; kinase still bound, per cent of control (PTK2B (human)): 98%; kinase still bound, per cent of control (PTK6 (human)): 46%; kinase still bound, per cent of control (RIOK1 (human)): 95%; kinase still bound, per cent of control (STK35 (human)): 83%; kinase still bound, per cent of control (TLK1 (human)): 89%; kinase still bound, per cent of control (TNIK (human)): 100%; kinase still bound, per cent of control (TNK1 (human)): 68%; kinase still bound, per cent of control (TNNI3K (human)): 51%; kinase still bound, per cent of control (TSSK1B (human)): 100%; kinase still bound, per cent of control (WEE2 (human)): 77%
O=C(NC1CC1)c1cccc(-c2ccc3c(NC(=O)C4CC4)n[nH]c3c2)c1 | 100% | 8% | 8.6% | 100% | 74% | 75% | 100% | 46% | 89% | 80% | 98% | 84% | 69% | 96% | 96% | 33% | 85% | 93% | 24% | 2.6% | kinase still bound, per cent of control (MELK (human)): 64%; kinase still bound, per cent of control (MYLK (human)): 63%; kinase still bound, per cent of control (NEK5 (human)): 60%; kinase still bound, per cent of control (NTRK1 (human)): 60%; kinase still bound, per cent of control (NUAK2 (human)): 24%; kinase still bound, per cent of control (PDPK1 (human)): 81%; kinase still bound, per cent of control (PIP4K2B (human)): 5.6%; kinase still bound, per cent of control (PKN1 (human)): 100%; kinase still bound, per cent of control (PLK3 (human)): 100%; kinase still bound, per cent of control (PRKCD (human)): 100%; kinase still bound, per cent of control (PTK2B (human)): 100%; kinase still bound, per cent of control (PTK6 (human)): 97%; kinase still bound, per cent of control (RIOK1 (human)): 10%; kinase still bound, per cent of control (STK35 (human)): 16%; kinase still bound, per cent of control (TLK1 (human)): 51%; kinase still bound, per cent of control (TNIK (human)): 25%; kinase still bound, per cent of control (TNK1 (human)): 100%; kinase still bound, per cent of control (TNNI3K (human)): 92%; kinase still bound, per cent of control (TSSK1B (human)): 69%; kinase still bound, per cent of control (WEE2 (human)): 100%
